What was measured:
[1] = Storage and solution stability of iodonium iodide 22; assay type: physicochemical
[2] = system: LNCaP-C4-2 prostate tumor cells
Experimental: Five 8-week-old male C.B-Igh-1b/IcrTac-Prkdcscid mice (Taconic) were injected subcutaneously in the neck region with 4×10^6 LNCaP-C4-2 prostate tumor cells. […] The first PET measurement was immediately followed by a CT scan during which the animal was left in the same position. Both tracers were injected i.v. through the lateral tail vein ([^18F]1-10: 21-32 MBq; [^68Ga]HBED-CC: 19-33 MBq, on two consecutive days). Emission data collection started 60 min after injection and lasted 45 min. Image reconstruction was performed using Fourier rebinning and an ordered subset expectation maximization (3D-OSEM) procedure, yielding images with voxel sizes of 0.78×0.78×0.80 mm. Image analysis was performed with VINCI 4.0 (MPI for Metabolism Research, Cologne, Germany). Tracer uptake in the tumor as well as liver, kidney, and background was determined using volumes of interest (VOIs) covering the respective structure. Significant differences were assessed using two-way repeated measures ANOVA with factors “structure” and “tracer”, followed by Holm-Sidak post hoc comparison. Tumor sizes were measured by drawing accurate tumor VOIs in the CT images, and extracting VOI volume. Tracer uptake was correlated tumor size using the Pearson correlation test.

[3] = system: PSMA positive prostate tumor xenografts; settings: PSMA positive prostate tumor xenografts in mice; clear delineation; cited from earlier work

Row | stability in solution ([1]; in solution, especially at elevated temperatures, in DMF or DMSO already at ambient temperature) | storage stability ([1]; stored at 4° C. under argon) | uptake in the kidney ([2]; PET 60 min after i.v. injection, kidney VOI) | liver uptake ([2]; PET 60 min after i.v. injection, liver VOI) | kidney uptake compared to [^68Ga]HBED-CC (50) ([2]; PSMA^+ PCa mice model) | Compound | tumor tracer uptake ([2]; PET 60 min after i.v. injection, 45 min emission, LNCaP-C4-2 xenograft mice, tumor VOI) | Signal-to-noise ratio (tumor versus background) ([2]; PET 60 min after i.v. injection, LNCaP-C4-2 xenograft mice) | imaging characteristics compared to [^68Ga]HBED-CC (50) ([2]; PSMA^+ PCa mice model) | tumor to background ratio [3]
1 | unstable | ≥ 4 months | – | – | – | COc1ccc([I+]c2ccc(C(=O)Oc3c(F)c(F)cc(F)c3F)cc2)cc1.[I-] [Compound 22, (4-Methoxyphenyl) [4-(2,3,5,6-tetrafluorophenoxycarbonyl)phenyl]iodonium iodide] | – | – | – | –
2 | – | – | 3.0±1.9 % ID/g | 1.1±0.5 % ID/g | much lower | O=C(O)CCC(NC(=O)NC(CCCCNC(=O)c1ccc([18F])nc1)C(=O)O)C(=O)O (stereo not drawn) [[^18F]1-10, 2-(3-{1-carboxy-5-[(6-[^18F]fluoro-pyridine-3-carbonyl)-amino]-pentyl}-ureido)-pentanedioic acid] | 1.4±1.7 % ID/g | 5.9±4.2 | nearly identical | excellent

— patent publication US10112974B2, “Method for the production of 18F-labeled active esters and their application exemplified by the preparation of a PSMA-specific PET-tracer” (Max-Planck-Gesellschaft zur Foerderung der Wissenschaften …, priority 2014, dated 2018)
